Test results published in publication PMC6467700 (Journal of medicinal chemistry, 2019).
Like-named read-outs stand apart in the source and are kept apart here.

Key:
[1] = molecular target: T1, KOR (Mus musculus, UniProt P33534); details: read-out: Ki,κ; 50a; cited from earlier work
[2] = molecular target: T2, MOR (Mus musculus, UniProt P42866); assay: Competition radioligand binding at the MOR; details: [3H]naloxone, CHO cells expressing mouse MOR
[3] = molecular target: T2, MOR; details: cited from earlier work
[4] = molecular target: T1, KOR; details: ref 57a, cited from earlier work
[5] = molecular target: T2, MOR; details: read-out: Ki (nM) MOR; ref 57a; cited from earlier work
[6] = molecular target: DOR (Mus musculus, UniProt P32300); details: ref 57a, cited from earlier work
[7] = system: MOR; details: peripherally selective MOR antagonist; cited from earlier work

T2 sequence (P42866 whole entry): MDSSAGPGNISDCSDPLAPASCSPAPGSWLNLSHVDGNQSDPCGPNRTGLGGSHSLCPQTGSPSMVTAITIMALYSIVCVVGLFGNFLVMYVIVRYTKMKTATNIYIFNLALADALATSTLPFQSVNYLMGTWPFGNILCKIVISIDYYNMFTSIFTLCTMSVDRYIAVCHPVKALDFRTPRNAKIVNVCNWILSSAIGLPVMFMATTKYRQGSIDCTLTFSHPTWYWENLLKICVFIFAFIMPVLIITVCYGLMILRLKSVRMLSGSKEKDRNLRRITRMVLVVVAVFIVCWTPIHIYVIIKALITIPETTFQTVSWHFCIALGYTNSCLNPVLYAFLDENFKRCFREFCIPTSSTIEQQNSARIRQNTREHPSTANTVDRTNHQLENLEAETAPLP
T1 sequence (P33534 whole entry): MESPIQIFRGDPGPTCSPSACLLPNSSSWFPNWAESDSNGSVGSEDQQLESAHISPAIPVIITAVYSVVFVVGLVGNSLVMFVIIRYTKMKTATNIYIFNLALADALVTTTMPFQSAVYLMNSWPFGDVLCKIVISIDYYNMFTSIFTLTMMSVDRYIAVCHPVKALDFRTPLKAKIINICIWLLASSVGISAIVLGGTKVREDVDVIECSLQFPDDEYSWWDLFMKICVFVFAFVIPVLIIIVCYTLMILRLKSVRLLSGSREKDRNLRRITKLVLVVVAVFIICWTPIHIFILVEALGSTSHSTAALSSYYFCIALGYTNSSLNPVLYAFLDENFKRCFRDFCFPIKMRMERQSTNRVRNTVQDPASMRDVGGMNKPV
Sequence of DOR (P32300 whole entry): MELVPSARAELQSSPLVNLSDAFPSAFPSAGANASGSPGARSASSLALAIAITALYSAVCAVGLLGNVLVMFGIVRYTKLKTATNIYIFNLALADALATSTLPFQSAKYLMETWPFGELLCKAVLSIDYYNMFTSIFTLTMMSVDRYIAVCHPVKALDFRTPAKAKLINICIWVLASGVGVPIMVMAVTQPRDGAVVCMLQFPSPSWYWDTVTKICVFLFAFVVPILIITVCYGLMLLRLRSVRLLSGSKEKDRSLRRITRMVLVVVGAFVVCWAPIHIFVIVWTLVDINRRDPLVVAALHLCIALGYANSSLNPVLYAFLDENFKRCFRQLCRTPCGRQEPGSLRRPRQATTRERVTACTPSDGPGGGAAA

Compound: Oc1ccc2c3c1O[C@H]1c4[nH]c5c(c4C[C@@]4(O)[C@@H](C2)N(CC2CC2)CC[C@]314)C[C@@]1(O)[C@H]2Cc3ccc(O)c4c3[C@@]1(CCN2CC1CC1)[C@H]5O4 [norBNI]
- Ki [1]: 1.8 nM

Compound: COC(=O)c1cnccc1C(=O)N[C@@H]1CC[C@@]2(O)[C@H]3Cc4ccc(O)c5c4[C@@]2(CCN3CC2CC2)[C@H]1O5 [Compound 6, 17-Cyclopropylmethyl-3,14β-dihydroxy-4,5α-epoxy-6β-[(3′-methylformate-4′-pyridyl)acetamido]morphinan]
- Ki (nM) MOR [2]: nanomolar binding affinity

Compound: Cc1cnccc1C(=O)N[C@@H]1CC[C@@]2(O)[C@H]3Cc4ccc(O)c5c4[C@@]2(CCN3CC2CC2)[C@H]1O5 [NMP, 17-cyclopropylmethyl-3,14β-dihydroxy-4,5α-epoxy-6β-{[4′-(3′-methylpyridyl)]carboxamido}morphinan]
- EC50 ([3]; read-out: MOR [35S]GTPγS Binding EC50, ref 57a): 1.52 ± 0.26 nM
- MOR [35S]GTPγS Binding % Emax of DAMGO ([3]; ref 57a): 30.63 ± 0.55%
- Ki ([4]; read-out: Ki (nM) KOR): 96.7 ± 12.2 nM
- Selectivity κ/μ [4]: 166
- Ki [5]: 0.58 ± 0.25 nM
- Ki ([6]; read-out: Ki (nM) DOR): 273.6 ± 1.8 nM
- Selectivity δ/μ [6]: 470

Compound: O=C(N[C@@H]1CC[C@@]2(O)[C@H]3Cc4ccc(O)c5c4[C@@]2(CCN3CC2CC2)[C@H]1O5)c1ccncc1 [NAP, 17-cyclopropylmethyl-3,14β-dihydroxy-4,5α-epoxy-6β-(4′-pyridylcarboxamido)-morphinan]
- MOR [35S]GTPγS Binding % Emax of DAMGO ([3]; ref 44a): 22.72 ± 0.84%
- ED50 [7]: 8.8 µg/kg
